Measurements taken from ChEMBL document CHEMBL1201862, “PubChem BioAssay data set” (2004).
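Growth conditions: 96-well plates. Treatment: test compound, 48 hours, 5 concentrations. Analysis: linear interpolation between bracketing concentrations; unreached endpoints set to highest concentration. Here, GI50 denotes the concentration required for 50% inhibition of growth.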 Activity calls are given as the source filed them. Cut-off read from the data, not from the text of the source: active = GI50 up to about 1.1 µM and inactive = higher.

What was measured:
Experiment in all cases: NCI-60 cell line screen, 48 h
[1] = system: BT-549
[2] = system: CAKI-1
[3] = system: HOP-92
[4] = system: MDA-MB-231
[5] = system: RPMI-8226
[6] = system: MOLT-4
[7] = system: OVCAR-5
[8] = system: HT-29
[9] = system: UACC-62
[10] = system: SF-268
[11] = system: 786-0
[12] = system: UO-31
[13] = system: MDA-MB-435
[14] = system: M14
[15] = system: T47D
[16] = system: SK-OV-3
[17] = system: OVCAR-4
[18] = system: SN12C
[19] = system: COLO 205
[20] = system: ACHN
[21] = system: SNB-19
[22] = system: NCI-H23
[23] = system: HCT-116
[24] = system: EKVX
[25] = system: PC-3
[26] = system: HL-60
[27] = system: UACC-257
[28] = system: IGROV-1
[29] = system: A498
[30] = system: Malme-3M
[31] = system: KM12
[32] = system: NCI-H226
[33] = system: MDA-N
[34] = system: SF-539
[35] = system: HCC 2998
[36] = system: MCF7
[37] = system: SK-MEL-5
[38] = system: HOP-62
[39] = system: SW-620
[40] = system: DU-145
[41] = system: Hs-578T
[42] = system: HCT-15
[43] = system: OVCAR-3
[44] = system: NCI/ADR-RES
[45] = system: RXF 393
[46] = system: SK-MEL-28
[47] = system: CCRF-CEM
[48] = system: U-251
[49] = system: OVCAR-8
[50] = system: NCI-H460
[51] = system: NCI-H522
[52] = system: LOX IMVI
[53] = system: K562
[54] = system: SR
[55] = system: TK-10
[56] = system: SF-295
[57] = system: SK-MEL-2
[58] = system: A549
[59] = system: SNB-75

With `Nc1nc2c(C(=O)NCc3cccs3)nnn2c2cccc(Cl)c12` the GI50 [1] was > 100 µM (inactive), the GI50 [2] was > 100 µM (inactive) and the GI50 [3] was 79.3 µM (inactive). For the same compound, the GI50 [4] was 60.1 µM (inactive), the GI50 [5] was 39.7 µM (inactive) and the GI50 [6] was 89.5 µM (inactive). For the same compound, the GI50 [7] was 45.3 µM (inactive), the GI50 [8] was > 100 µM (inactive) and the GI50 [9] was > 100 µM (inactive). For the same compound, the GI50 [10] was > 100 µM (inactive), the GI50 [11] was > 100 µM (inactive) and the GI50 [12] was 87.5 µM (inactive). The GI50 [13] was > 100 µM (inactive), the GI50 [14] was > 100 µM (inactive) and the GI50 [15] was 19.5 µM (inactive). The GI50 [16] was > 100 µM (inactive), the GI50 [17] was > 100 µM (inactive) and the GI50 [18] was > 100 µM (inactive). The GI50 [19] was > 100 µM (inactive), the GI50 [20] was > 100 µM (inactive) and the GI50 [21] was > 100 µM (inactive). For the same compound, the GI50 [22] was 87.3 µM (inactive), the GI50 [23] was > 100 µM (inactive) and the GI50 [24] was 57.8 µM (inactive). For the same compound, the GI50 [25] was 54.5 µM (inactive), the GI50 [26] was > 100 µM (inactive) and the GI50 [27] was > 100 µM (inactive). For the same compound, the GI50 [28] was > 100 µM (inactive), the GI50 [29] was > 100 µM (inactive) and the GI50 [30] was > 100 µM (inactive). The GI50 [31] was > 100 µM (inactive), the GI50 [32] was 92 µM (inactive) and the GI50 [33] was > 100 µM (inactive). The GI50 [34] was 77.3 µM (inactive), the GI50 [35] was 30.5 µM (inactive) and the GI50 [36] was 53.8 µM (inactive). The GI50 [37] was 92.3 µM (inactive), the GI50 [38] was > 100 µM (inactive) and the GI50 [39] was 91.2 µM (inactive). The GI50 [40] was > 100 µM (inactive), the GI50 [41] was > 100 µM (inactive) and the GI50 [42] was > 100 µM. The GI50 [43] was > 100 µM (inactive), the GI50 [44] was > 100 µM (inactive) and the GI50 [45] was 59.4 µM (inactive). The GI50 [46] was 92.3 µM (inactive), the GI50 [47] was 22.3 µM (inactive) and the GI50 [48] was > 100 µM (inactive). For the same compound, the GI50 [49] was 84.7 µM (inactive), the GI50 [50] was > 100 µM (inactive) and the GI50 [51] was > 100 µM (inactive). For the same compound, the GI50 [52] was > 100 µM (inactive), the GI50 [53] was > 100 µM (inactive) and the GI50 [54] was 52.2 µM (inactive). For the same compound, the GI50 [55] was > 100 µM (inactive), the GI50 [56] was > 100 µM (inactive) and the GI50 [57] was > 100 µM (inactive). The GI50 [58] was > 100 µM (inactive).

With `C=C1CC(COc2ccc3c(C)c(C)c(=O)oc3c2C)(c2ccccc2)OC1=O` (centres undefined) the GI50 [1] was 1.63 µM (inactive), the GI50 [2] was 1.5 µM (inactive) and the GI50 [3] was 1.45 µM (inactive). For the same compound, the GI50 [4] was 2.72 µM (inactive), the GI50 [5] was 0.486 µM (active) and the GI50 [6] was 1.11 µM (active). The GI50 [7] was 9.02 µM (inactive), the GI50 [8] was 1.53 µM (inactive) and the GI50 [9] was 1.69 µM (inactive). The GI50 [10] was 2.64 µM (inactive), the GI50 [11] was 1.41 µM (inactive) and the GI50 [12] was 2.77 µM (inactive). The GI50 [13] was 2.7 µM (inactive), the GI50 [14] was 1.57 µM (inactive) and the GI50 [15] was 2.07 µM (inactive). The GI50 [16] was 3.28 µM (inactive), the GI50 [17] was 2.32 µM (inactive) and the GI50 [18] was 3.39 µM (inactive). For the same compound, the GI50 [19] was 1.6 µM (inactive), the GI50 [59] was 2.67 µM (inactive) and the GI50 [20] was 3.51 µM (inactive). For the same compound, the GI50 [21] was 13.5 µM (inactive), the GI50 [22] was 2.04 µM (inactive) and the GI50 [23] was 1.41 µM (inactive). The GI50 [24] was 7.55 µM (inactive), the GI50 [25] was 1.73 µM (inactive) and the GI50 [26] was 0.711 µM (active). For the same compound, the GI50 [27] was 0.531 µM (active), the GI50 [28] was 1.73 µM (inactive) and the GI50 [29] was 2.7 µM (inactive). The GI50 [30] was 1.62 µM (inactive), the GI50 [31] was 2.86 µM (inactive) and the GI50 [32] was 2.27 µM (inactive). The GI50 [33] was 1.87 µM (inactive), the GI50 [34] was 2.02 µM (inactive) and the GI50 [35] was 2.48 µM (inactive). The GI50 [36] was 1.42 µM (inactive), the GI50 [37] was 1.59 µM (inactive) and the GI50 [38] was 6.22 µM (inactive). For the same compound, the GI50 [39] was 1.22 µM (inactive), the GI50 [40] was 2.07 µM (inactive) and the GI50 [41] was 4.26 µM (inactive). For the same compound, the GI50 [42] was 1.88 µM, the GI50 [43] was 2.88 µM (inactive) and the GI50 [44] was 2.7 µM (inactive). The GI50 [46] was 2.07 µM (inactive), the GI50 [47] was 0.333 µM (active) and the GI50 [48] was 7.64 µM (inactive). The GI50 [49] was 1.72 µM (inactive), the GI50 [50] was 6.01 µM (inactive) and the GI50 [51] was 1.64 µM (inactive). For the same compound, the GI50 [52] was 1 µM (active), the GI50 [53] was 0.671 µM (active) and the GI50 [54] was 1.46 µM (inactive). For the same compound, the GI50 [55] was 1.45 µM (inactive), the GI50 [56] was 5.66 µM (inactive) and the GI50 [57] was 2.02 µM (inactive). For the same compound, the GI50 [58] was 11.7 µM (inactive).

`O=C1/C(=C/c2ccccc2)Oc2cc(O)ccc21` was tested, and the GI50 [1] was > 100 µM (inactive), the GI50 [2] was > 100 µM (inactive) and the GI50 [4] was > 100 µM (inactive). For the same compound, the GI50 [5] was > 100 µM (inactive), the GI50 [6] was > 100 µM (inactive) and the GI50 [8] was > 100 µM (inactive). For the same compound, the GI50 [9] was > 100 µM (inactive), the GI50 [10] was > 100 µM (inactive) and the GI50 [11] was > 100 µM (inactive). The GI50 [12] was > 100 µM (inactive), the GI50 [13] was > 100 µM (inactive) and the GI50 [14] was > 100 µM (inactive). The GI50 [15] was > 100 µM (inactive), the GI50 [16] was > 100 µM (inactive) and the GI50 [17] was > 100 µM (inactive). For the same compound, the GI50 [18] was > 100 µM (inactive), the GI50 [19] was > 100 µM (inactive) and the GI50 [59] was > 100 µM (inactive). For the same compound, the GI50 [20] was > 100 µM (inactive), the GI50 [21] was > 100 µM (inactive) and the GI50 [22] was > 100 µM (inactive). For the same compound, the GI50 [23] was > 100 µM (inactive), the GI50 [24] was > 100 µM (inactive) and the GI50 [25] was > 100 µM (inactive). For the same compound, the GI50 [26] was > 100 µM (inactive), the GI50 [27] was > 100 µM (inactive) and the GI50 [28] was > 100 µM (inactive). The GI50 [31] was > 100 µM (inactive), the GI50 [32] was > 100 µM (inactive) and the GI50 [33] was > 100 µM (inactive). The GI50 [34] was > 100 µM (inactive), the GI50 [35] was > 100 µM (inactive) and the GI50 [36] was > 100 µM (inactive). For the same compound, the GI50 [37] was > 100 µM (inactive), the GI50 [38] was > 100 µM (inactive) and the GI50 [39] was > 100 µM (inactive). For the same compound, the GI50 [40] was > 100 µM (inactive), the GI50 [41] was > 100 µM (inactive) and the GI50 [42] was > 100 µM. The GI50 [43] was > 100 µM (inactive), the GI50 [44] was > 100 µM (inactive) and the GI50 [45] was > 100 µM (inactive). The GI50 [46] was > 100 µM (inactive), the GI50 [47] was > 100 µM (inactive) and the GI50 [48] was > 100 µM (inactive). For the same compound, the GI50 [49] was > 100 µM (inactive), the GI50 [50] was > 100 µM (inactive) and the GI50 [51] was 70.3 µM (inactive). For the same compound, the GI50 [53] was > 100 µM (inactive), the GI50 [54] was > 100 µM (inactive) and the GI50 [55] was > 100 µM (inactive). The GI50 [56] was > 100 µM (inactive) and the GI50 [58] was > 100 µM (inactive).
